In patent US20240294541A1, “COMPOUNDS CONSTITUTING C20-MODIFIED SALINOMYCIN DERIVATIVES, A METHOD FOR OBTAINING THE SAME, A COMPOSITION CONTAINING THE SAME AND A USE OF SAID COMPOUNDS” (FILECLO SPOLKA Z OGRANICZONA ODPOWIEDZIALNOSCIA, priority 2021, published 2024):

Tests used:
Format in all cases: cell-based
[1] = system: MV-4-11 (human biphenotypic leukaemia); test: In vitro cytotoxicity, MTT assay, MV-4-11; details: for IC50: Homo sapiens, MV4-11, read-out: IC50 (nM) MV4-11
[2] = system: BALB/3T3 (normal mouse fibroblasts); test: In vitro cytotoxicity, SRB assay, normal BALB/3T3 fibroblasts; details: Table 5; BALB/3T3 normal mouse fibroblasts; read-out: IC50 (nM) BALB3T3 normal cells
[3] = system: A2780Cis (cisplatin-resistant human ovarian cancer); test: In vitro cytotoxicity, SRB assay, A2780Cis; details: for IC50: Homo sapiens, A2780cis, read-out: IC50 (nM) A2780Cis
[4] = system: PLC/PRF/5 (human liver cancer); test: cells; details: Table 4; PLC/PRF/5 human liver cancer cells; read-out: IC50 (nM) PLC/PRF/5
Hs294T (human melanoma) = test: cells; details: Hs 294T; Table 4; Hs294T human melanoma cells; read-out: IC50 (nM) Hs294T
[5] = system: MIA PaCa-2 (human pancreatic cancer); test: cells; details: Table 4; MIA PaCa-2 human pancreatic cancer cells; read-out: IC50 (nM) MIA PaCa-2

SMILES: CC[C@@H](C(=O)[C@@H](C)[C@@H](O)[C@H](C)[C@@H]1O[C@@H]([C@@H](CC)C(=O)O)CC[C@@H]1C)[C@H]1O[C@]2(C=C[C@@H](NC(=O)c3ccccc3C(F)(F)F)[C@]3(CC[C@@](C)([C@H]4CC[C@](O)(CC)[C@H](C)O4)O3)O2)[C@H](C)C[C@@H]1C [FLC-00578-1•Na]
- SI MV4-11 [1]: 59.8
- IC50 [1]: 5.99 nM
- IC50 [2]: 358 nM
- SI A2780Cis [3]: 184.9
- IC50 [3]: 1.94 nM

SMILES: CC[C@@H](C(=O)[C@@H](C)[C@@H](O)[C@H](C)[C@@H]1O[C@@H]([C@@H](CC)C(=O)O)CC[C@@H]1C)[C@H]1O[C@]2(C=C[C@@H](NC(=O)C(=O)NCc3ccncc3)[C@]3(CC[C@@](C)([C@H]4CC[C@](O)(CC)[C@H](C)O4)O3)O2)[C@H](C)C[C@@H]1C [FLC-00489-1•Na]
- SI MV4-11 [1]: 14.6
- IC50 [1]: 338 nM
- IC50 [2]: 4920 nM
- SI A2780Cis [3]: 28.0
- IC50 [3]: 175 nM

SMILES: CC[C@@H](C(=O)[C@@H](C)[C@@H](O)[C@H](C)[C@@H]1O[C@@H]([C@@H](CC)C(=O)O)CC[C@@H]1C)[C@H]1O[C@]2(C=C[C@@H](NC(=O)N3CCN(S(C)(=O)=O)C3=O)[C@]3(CC[C@@](C)([C@H]4CC[C@](O)(CC)[C@H](C)O4)O3)O2)[C@H](C)C[C@@H]1C [FLC-00519-1•Na]
- SI MV4-11 [1]: 4.0
- IC50 [1]: 1590 nM
- IC50 [2]: 6370 nM
- SI A2780Cis [3]: 5.3
- IC50 [3]: 1190 nM

SMILES: CC[C@@H](C(=O)[C@@H](C)[C@@H](O)[C@H](C)[C@@H]1O[C@@H]([C@@H](CC)C(=O)O)CC[C@@H]1C)[C@H]1O[C@]2(C=C[C@@H](NC(=O)OCc3ccccc3Cl)[C@]3(CC[C@@](C)([C@H]4CC[C@](O)(CC)[C@H](C)O4)O3)O2)[C@H](C)C[C@@H]1C [FLC-00484-1•Na]
- SI MV4-11 [1]: 40.7
- IC50 [1]: 0.59 nM
- IC50 [2]: 23.9 nM
- SI A2780Cis [3]: 95.4
- IC50 [3]: 0.25 nM

SMILES: CC[C@@H](C(=O)[C@@H](C)[C@@H](O)[C@H](C)[C@@H]1O[C@@H]([C@@H](CC)C(=O)O)CC[C@@H]1C)[C@H]1O[C@]2(C=C[C@@H](NC(=O)OCCOCCOCCOCCOC)[C@]3(CC[C@@](C)([C@H]4CC[C@](O)(CC)[C@H](C)O4)O3)O2)[C@H](C)C[C@@H]1C [FLC-00481-1•Na]
- SI MV4-11 [1]: 12.0
- IC50 [1]: 320 nM
- IC50 [2]: 3830 nM
- SI A2780Cis [3]: 17.4
- IC50 [3]: 220 nM

SMILES: CC[C@@H](C(=O)[C@@H](C)[C@@H](O)[C@H](C)[C@@H]1O[C@@H]([C@@H](CC)C(=O)O)CC[C@@H]1C)[C@H]1O[C@]2(C=C[C@@H](NC(=O)CC(C)(C)C)[C@]3(CC[C@@](C)([C@H]4CC[C@](O)(CC)[C@H](C)O4)O3)O2)[C@H](C)C[C@@H]1C [FLC-00534-1•Na]
- SI MV4-11 [1]: 42.4
- IC50 [1]: 1.53 nM
- IC50 [2]: 64.9 nM
- SI A2780Cis [3]: 50.7
- IC50 [3]: 1.28 nM

SMILES: CC[C@@H](C(=O)[C@@H](C)[C@@H](O)[C@H](C)[C@@H]1O[C@@H]([C@@H](CC)C(=O)O)CC[C@@H]1C)[C@H]1O[C@]2(C=C[C@@H](NC(=O)c3cccc(C(F)(F)F)c3)[C@]3(CC[C@@](C)([C@H]4CC[C@](O)(CC)[C@H](C)O4)O3)O2)[C@H](C)C[C@@H]1C [FLC-00579-1•Na]
- SI MV4-11 [1]: 8.5
- IC50 [1]: 188 nM
- IC50 [2]: 1590 nM
- SI A2780Cis [3]: 22.3
- IC50 [3]: 71.4 nM

SMILES: CC[C@@H](C(=O)[C@@H](C)[C@@H](O)[C@H](C)[C@@H]1O[C@@H]([C@@H](CC)C(=O)O)CC[C@@H]1C)[C@H]1O[C@]2(C=C[C@@H](NC(=O)C(=O)NCCCn3ccnc3)[C@]3(CC[C@@](C)([C@H]4CC[C@](O)(CC)[C@H](C)O4)O3)O2)[C@H](C)C[C@@H]1C [FLC-00392-1•Na]
- IC50 [4]: 8330 nM
- IC50 [1]: 1960 nM
- IC50 [3]: 3750 nM

SMILES: CC[C@@H](C(=O)[C@@H](C)[C@@H](O)[C@H](C)[C@@H]1O[C@@H]([C@@H](CC)C(=O)O)CC[C@@H]1C)[C@H]1O[C@]2(C=C[C@@H](NC(=O)c3cc(OC)c(OC)c(OC)c3)[C@]3(CC[C@@](C)([C@H]4CC[C@](O)(CC)[C@H](C)O4)O3)O2)[C@H](C)C[C@@H]1C [FLC-00573-1•Na]
- IC50 [1]: 158 nM
- IC50 [2]: 1880 nM

SMILES: CC[C@@H](C(=O)[C@@H](C)[C@@H](O)[C@H](C)[C@@H]1O[C@@H]([C@@H](CC)C(=O)O)CC[C@@H]1C)[C@H]1O[C@]2(C=C[C@@H](NC(=O)C(=O)NCCN(C)C)[C@]3(CC[C@@](C)([C@H]4CC[C@](O)(CC)[C@H](C)O4)O3)O2)[C@H](C)C[C@@H]1C [FLC-00471-1•Na]
- IC50 [1]: 4730 nM
- IC50 [3]: 4290 nM

SMILES: CC[C@@H](C(=O)[C@@H](C)[C@@H](O)[C@H](C)[C@@H]1O[C@@H]([C@@H](CC)C(=O)O)CC[C@@H]1C)[C@H]1O[C@]2(C=C[C@@H](NC(=O)NCCCN(C)C)[C@]3(CC[C@@](C)([C@H]4CC[C@](O)(CC)[C@H](C)O4)O3)O2)[C@H](C)C[C@@H]1C [FLC-00562-1•Na]
- IC50 [1]: 3070 nM
- IC50 [3]: 3010 nM

SMILES: CC[C@@H](C(=O)[C@@H](C)[C@@H](O)[C@H](C)[C@@H]1O[C@@H]([C@@H](CC)C(=O)O)CC[C@@H]1C)[C@H]1O[C@]2(C=C[C@@H](NC(=O)C(=O)NCCN3CCOCC3)[C@]3(CC[C@@](C)([C@H]4CC[C@](O)(CC)[C@H](C)O4)O3)O2)[C@H](C)C[C@@H]1C [FLC-00465-1•Na]
- IC50 [1]: 3170 nM
- IC50 [3]: 3070 nM

SMILES: CC[C@@H](C(=O)[C@@H](C)[C@@H](O)[C@H](C)[C@@H]1O[C@@H]([C@@H](CC)C(=O)O)CC[C@@H]1C)[C@H]1O[C@]2(C=C[C@@H](NC(=O)N(C)CCCN(C)C)[C@]3(CC[C@@](C)([C@H]4CC[C@](O)(CC)[C@H](C)O4)O3)O2)[C@H](C)C[C@@H]1C [FLC-00563-1•Na]
- IC50 [1]: 3250 nM
- IC50 [3]: 3120 nM

SMILES: CCCCCCCCCCCCCCCCOC(=O)N[C@@H]1C=C[C@]2(O[C@H]([C@@H](CC)C(=O)[C@@H](C)[C@@H](O)[C@H](C)[C@@H]3O[C@@H]([C@@H](CC)C(=O)O)CC[C@@H]3C)[C@@H](C)C[C@H]2C)O[C@@]12CC[C@@](C)([C@H]1CC[C@](O)(CC)[C@H](C)O1)O2 [FLC-00410-1•Na]
- IC50 [1]: 3740 nM
- IC50 [3]: 7700 nM

SMILES: CC[C@@H](C(=O)[C@@H](C)[C@@H](O)[C@H](C)[C@@H]1O[C@@H]([C@@H](CC)C(=O)O)CC[C@@H]1C)[C@H]1O[C@]2(C=C[C@@H](NC(=O)C(=O)NCCN)[C@]3(CC[C@@](C)([C@H]4CC[C@](O)(CC)[C@H](C)O4)O3)O2)[C@H](C)C[C@@H]1C [FLC-00456-1•Na]
- IC50 [4]: 7290 nM
- IC50 (Hs294T (human melanoma)): 8690 nM
- IC50 [1]: 3430 nM
- IC50 [3]: 2850 nM

SMILES: CC[C@@H](C(=O)[C@@H](C)[C@@H](O)[C@H](C)[C@@H]1O[C@@H]([C@@H](CC)C(=O)O)CC[C@@H]1C)[C@H]1O[C@]2(C=C[C@@H](NC(=O)C(=O)NCCO)[C@]3(CC[C@@](C)([C@H]4CC[C@](O)(CC)[C@H](C)O4)O3)O2)[C@H](C)C[C@@H]1C [FLC-00438-1•Na]
- IC50 [4]: 7280 nM
- IC50 [1]: 2500 nM
- IC50 [5]: 6460 nM
- IC50 [3]: 2900 nM

SMILES: CC[C@@H](C(=O)[C@@H](C)[C@@H](O)[C@H](C)[C@@H]1O[C@@H]([C@@H](CC)C(=O)O)CC[C@@H]1C)[C@H]1O[C@]2(C=C[C@@H](NC(=O)N3CCN(CC)C(=O)C3=O)[C@]3(CC[C@@](C)([C@H]4CC[C@](O)(CC)[C@H](C)O4)O3)O2)[C@H](C)C[C@@H]1C [FLC-00518-1•Na]
- IC50 [1]: 3490 nM
- IC50 [3]: 3220 nM
